# PMC9977398, “Next-generation membrane-active glycopeptide antibiotics that also inhibit bacterial cell division” (Chemical Science, 2023)
# Legend:
# [1] = tested on: B. subtilis; experiment: Membrane permeabilization assay, propidium iodide uptake; assay type: cell-based; details: exponentially growing B. subtilis, 10 μM, PI uptake
# Experimental: The kinetics of permeabilization of membranes of MRSA and B. subtilis by the compounds was measured by the uptake of propidium iodide (PI). […] When the membrane integrity is compromised, it enters the cell and fluoresces upon binding to the DNA. Both VanQbiph (4) and VanQAmC10 (8) permeabilized the membrane in a concentration-dependent manner (Fig. S2 ^†). […] They caused gradual permeabilization against the stationary phase cells of MRSA as well (Fig. 2F). The extent of permeabilization was higher for VanQAmC10 (8) than VanQbiph (4) against both the log-phase and stationary-phase bacteria similar to that observed during depolarisation.
# 50 μL of serially diluted compound was added into 96 well microtiter plates. Freshly drawn, heparanized human blood was centrifuged down to obtain the erythrocytes and re-suspended to 5 vol % in PBS (pH 7.4). […] 100 μL of the supernatant from each well were transferred into fresh microtiter plates, and A540 was measured.
# % haemolysis = (A - A0)/(Atotal -A0) × 100, where A is the absorbance of the test well, A 0 the absorbance of the negative controls (without compound), and A total the absorbance of 100 % hemolysis wells (with Triton X -100), all at 540 nm. […]
# 2 h post incubation with dye, the absorbance was measured at 570 nm using 600 nm as […]
# The bactericidal activity of the compounds was evaluated with the time kill kinetics assay. […]
# [2] = tested on: persister cells of MRSA; experiment: Bactericidal activity against persister cells; assay type: cell-based, S. aureus
# Experimental: Persister cells are a subpopulation of bacterial cultures that are refractory to antibiotic treatment.[28] […] This activity was more rapid than that observed against stationary phase cells. […]
# from 10 μg/mL. The bacteria with compounds and untreated control were incubated for 18 h at 37 ̊C under shaking and OD600 was measured.
# Microscopy of ΔamiAC MG1655 E. coli
# ΔamiAC MG1655 was cultured overnight in LB media at 37 ̊C. Cells were then inoculated in LB media at 1:100 dilution ratio and made to grow till O.D600 0.1. The cells were then treated with 4 μg/mL concentration of vancomycin and VanQAmC10 or left untreated for 2 h. 6 μl of sample was immobilized on 1% agarose pad and microscopy was performed as described above. The experiments were performed three times independently and the images are representative of results from three independent experiments. […]
# MRSA ATCC 33591 was grown to mid-log phase at 37 °C. […] The viable bacteria were then counted after 48 h incubation at 37 °C. […]
# Antagonization of antibacterial activity of AAV-qC10 was determined by addition of 500 μM N,N՛-diacetyl–L-Lys–D-Ala–D-Ala or 100 μg/mL of lipoteichoic acid to serial dilutions of the test compound. The MIC was then determined against MRSA by measuring the OD600 18-24 […]
# Vancomycin was chosen as control antibiotic for MRSA. The initial MIC values of VanQAmC10, vancomycin were determined against the respective bacteria. […]
smiles,measurement,setting,value
CCCCCCCCCCNC(=O)C[N+](C)(C)CCCNC(=O)C1NC(=O)C2NC(=O)C(NC(=O)C3NC(=O)C(CC(N)=O)NC(=O)C(NC(=O)C(CC(C)C)NC)C(O)c4ccc(c(Cl)c4)Oc4cc3cc(c4OC3OC(CO)C(O)C(O)C3OC3CC(C)(N)C(O)C(C)O3)Oc3ccc(cc3Cl)C2O)c2ccc(O)c(c2)-c2c(O)cc(O)cc21 (centres unmarked) [VanQAmC10 (8)],time to membrane permeabilization,[1],≤ 4 min
same,activity against persister cells,[2],concentration-dependent bactericidal activity
